According to BindingDB's records for doi:10.1021/jm401509e (Pfizer, 2014):

Legend:
[1] = Antagonist activity at CRTh2 in human peripheral blood assessed as inhibition of PGD2-induced eosinophil shape change at room temperature by flow cytometry
[2] = Inhibition of CRTH2 receptor-mediated chemotaxis in human basophils

SMILES | IC50 [1] [nM] | IC50 [2] [nM]
Cc1c(-c2cn(CC(C)(C)C)c(=O)c3ccccc23)c2cc(F)ccc2n1CC(=O)O | 18 | 
Cc1c(-c2cn(CCCC(F)(F)F)c(=O)c3ccccc23)c2cc(F)ccc2n1CC(=O)O | 3 | 
Cc1c(-c2cn(CC(F)(F)F)c(=O)c3ccccc23)c2cc(F)ccc2n1CC(=O)O | 19 | 
Cc1c(-c2cn(C(C)C)c(=O)c3ccccc23)c2cc(F)ccc2n1CC(=O)O | 8 | 1.2
